Test results published in patent publication US9290453B2 (Merck Sharp & Dohme Corp., priority 2010, dated 2016).

The compounds below were run against T1, hCRTH2 (Homo sapiens, UniProt Q9Y5Y4) (assay: Radioligand Binding Assay B (scintillation proximity assay, [3H]-PGD2, HEK-hCRTH2 membranes)). Conditions: Radioligand Binding Assay B (SPA), values in text.
T1 construct: expressed in transfected cells; host or cells: HEK (human embryonic kidney) cells expressing hCRTH2
T1 sequence (Q9Y5Y4 1-395): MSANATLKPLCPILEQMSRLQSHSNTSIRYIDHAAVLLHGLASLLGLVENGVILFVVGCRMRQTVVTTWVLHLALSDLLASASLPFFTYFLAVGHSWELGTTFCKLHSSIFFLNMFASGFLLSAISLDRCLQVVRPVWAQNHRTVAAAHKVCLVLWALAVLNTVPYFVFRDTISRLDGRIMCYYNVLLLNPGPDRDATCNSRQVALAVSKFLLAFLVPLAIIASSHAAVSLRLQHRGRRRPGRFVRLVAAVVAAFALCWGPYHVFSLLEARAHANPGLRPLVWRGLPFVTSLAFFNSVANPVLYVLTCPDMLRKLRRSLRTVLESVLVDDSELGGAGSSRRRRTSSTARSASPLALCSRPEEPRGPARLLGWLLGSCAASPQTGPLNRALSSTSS
Description: Radioligand binding also was performed using scintillation proximity assay (SPA) technology in a similar way as described above in Radioligand Binding Assay A with minor modification. Assays were done at room temperature in 10 mM HEPES pH 7.4, 1 mM EDTA containing 2 mM MnCl2 and 16 nM [^3H]-PGD2 (PerkinElmer, Waltham, Mass.) (164 Ci mmol^−1), in a final volume of 0.05 mL. Competing ligands were diluted in dimethylsulfoxide (Me2SO) and added using very low volumes (50 nL). The reaction was initiated by the addition of a mixture of 3.52 μg of membrane protein prepared from a human embryonic kidney (HEK)-hCRTH2 cell line adhered to 140 ug of wheatgerm agglutinin SPA beads (PerkinElmer). Total and non-specific binding were determined in the absence and the presence of 10 μM of a CRTH2 antagonist, respectively. The reaction was routinely conducted for 60 min at room temperature followed by centrifugation for 5 minutes at 1000 RPM. The radioactivity was measured with a TopCountNXT (PerkinElmer). Results determined using the SPA-based assay were similar to those from the filtration binding assay.
In the case of `O=C(O)CCCCc1cc2cc(C(=O)N[C@H]3CCOc4ccccc43)ccc2nc1-c1ccccc1` [Compound 1AL, (S)-5-(6-(chroman-4-ylcarbamoyl)-2-phenylquinolin-3-yl)pentanoic acid], the Ki is reported as 22.3 nM.
With `O=C(O)CCCCc1cc2cc(C(=O)N3CCN(c4c(Cl)cncc4Cl)CC3)ccc2nc1-c1ccccc1` [Compound 1AY, 5-(6-(4-(3,5-dichloropyridin-4-yl)piperazine-1-carbonyl)-2-phenylquinolin-3-yl)pentanoic acid] the Ki was 14 nM.

Same assay, conditions: Table B, Radioligand Binding Assay B (SPA), rated A-D
For `C[C@@H](NC(=O)c1ccc2nc(-c3ccccc3)c(CCCCC(=O)O)cc2c1)c1ccc(F)cc1` [Compound 1AH, (R)-5-(6-((1-(4-fluorophenyl)ethyl)carbamoyl)-2-phenylquinolin-3-yl)pentanoic acid], the Ki was 20.1 to 200 nM.
For `O=C(O)CCCCc1cc2cc(C(=O)N3CC(c4cccc(F)c4)C3)ccc2nc1-c1ccccc1` [Compound 1AJ, 5-(6-(3-(3-fluorophenyl)azetidine-1-carbonyl)-2-phenylquinolin-3-yl)pentanoic acid], the Ki was 2.1 to 20 nM.
With `CN(Cc1ccc(F)cc1)C(=O)c1ccc2nc(-c3ccccc3)c(CCCCC(=O)O)cc2c1` [Compound 1AK, 5-(6-((4-fluorobenzyl)(methyl)carbamoyl)-2-phenylquinolin-3-yl)pentanoic acid] the Ki was 20.1 to 200 nM.
For `O=C(O)CCCCc1cc2cc(C(=O)N[C@H]3CCOc4ccccc43)ccc2nc1-c1ccccc1` [Compound 1AL, (S)-5-(6-(chroman-4-ylcarbamoyl)-2-phenylquinolin-3-yl)pentanoic acid], the Ki was 20.1 to 200 nM.
With `O=C(O)CCCCc1cc2cc(C(=O)N3CC[C@H](c4ccc(F)cc4)C3)ccc2nc1-c1ccccc1` [Compound 1AM, (R)-5-(6-(3-(4-fluorophenyl)pyrrolidine-1-carbonyl)-2-phenylquinolin-3-yl)pentanoic acid] the Ki was 20.1 to 200 nM.
`O=C(O)CCCCc1cc2cc(C(=O)N3CC[C@@H](c4ccc(F)cc4)C3)ccc2nc1-c1ccccc1` [Compound 1AN, (S)-5-(6-(3-(4-fluorophenyl)pyrrolidine-1-carbonyl)-2-phenylquinolin-3-yl)pentanoic acid] showed a Ki of 2.1 to 20 nM.
Work on `CC1(C)CC(NC(=O)c2ccc3nc(-c4ccccc4)c(CCCCC(=O)O)cc3c2)c2ccccc2O1` (stereo not shown) [Compound 1AP, 5-(6-((2,2-dimethylchroman-4-yl)carbamoyl)-2-phenylquinolin-3-yl)pentanoic acid] yielded a Ki of 20.1 to 200 nM.
`CC1(C)CCC(NC(=O)c2ccc3nc(-c4ccccc4)c(CCCCC(=O)O)cc3c2)c2ccccc21` (stereo not shown) [Compound 1AQ, 5-(6-((4,4-dimethyl-1,2,3,4-tetrahydronaphthalen-1-yl)carbamoyl)-2-phenylquinolin-3-yl)pentanoic acid] was tested, and the Ki was 2.1 to 20 nM.
In the case of `N#CC1(c2ccccc2)CCN(C(=O)c2ccc3nc(-c4ccccc4)c(CCCCC(=O)O)cc3c2)C1` (stereo not shown) [Compound 1AR, 5-(6-(3-cyano-3-phenylpyrrolidine-1-carbonyl)-2-phenylquinolin-3-yl)pentanoic acid], the Ki is reported as 2.1 to 20 nM.
`O=C(O)CCCCc1cc2cc(C(=O)NC3CC(=O)Nc4ccccc43)ccc2nc1-c1ccccc1` (stereo not shown) [Compound 1AS, 5-(6-((2-oxo-1,2,3,4-tetrahydroquinolin-4-yl)carbamoyl)-2-phenylquinolin-3-yl)pentanoic acid] showed a Ki of 2.1 to 20 nM.
`CC(C)(NC(=O)c1ccc2nc(-c3ccccc3)c(CCCCC(=O)O)cc2c1)c1ccc(F)cc1` [Compound 1AT, 5-(6-((2-(4-fluorophenyl)propan-2-yl)carbamoyl)-2-phenylquinolin-3-yl)pentanoic acid] gave a Ki of 20.1 to 200 nM.
Compound `O=C(O)CCCCc1cc2cc(C(=O)N3CCC(n4c(=O)[nH]c5ccccc54)CC3)ccc2nc1-c1ccccc1` [Compound 1AU, 5-(6-(4-(2-oxo-2,3-dihydro-1H-benzo[d]imidazol-1-yl)piperidine-1-carbonyl)-2-phenylquinolin-3-yl)pentanoic acid] has a Ki of 20.1 to 200 nM.
In the case of `O=C(O)CCCCc1cc2cc(C(=O)N3CCC4(CC3)OCc3ccccc34)ccc2nc1-c1ccccc1` [Compound 1AV, 5-(2-phenyl-6-(3H-spiro[isobenzofuran-1,4′-piperidin]-1′-ylcarbonyl)quinolin-3-yl)pentanoic acid], the Ki is reported as 2.1 to 20 nM.
With `O=C(O)CCCCc1cc2cc(C(=O)N3CCN(c4ccccn4)CC3)ccc2nc1-c1ccccc1` [Compound 1AW, 5-(2-phenyl-6-(4-(pyridin-2-yl)piperazine-1-carbonyl)quinolin-3-yl)pentanoic acid] the Ki was 20.1 to 200 nM.
`N#Cc1cccnc1N1CCN(C(=O)c2ccc3nc(-c4ccccc4)c(CCCCC(=O)O)cc3c2)CC1` [Compound 1AX, 5-(6-(4-(3-cyanopyridin-2-yl)piperazine-1-carbonyl)-2-phenylquinolin-3-yl)pentanoic acid] was tested, and the Ki was 20.1 to 200 nM.
`O=C(O)CCCCc1cc2cc(C(=O)N3CCN(c4c(Cl)cncc4Cl)CC3)ccc2nc1-c1ccccc1` [Compound 1AY, 5-(6-(4-(3,5-dichloropyridin-4-yl)piperazine-1-carbonyl)-2-phenylquinolin-3-yl)pentanoic acid] was tested, and the Ki was 2.1 to 20 nM.
With `N#Cc1ccccc1N1CCN(C(=O)c2ccc3nc(-c4ccccc4)c(CCCCC(=O)O)cc3c2)CC1` [Compound 1AZ, 5-(6-(4-(2-cyanophenyl)piperazine-1-carbonyl)-2-phenylquinolin-3-yl)pentanoic acid] the Ki was 2.1 to 20 nM.
`O=C(O)CCCCc1cc2cc(C(=O)N3CCN(c4ccccc4)CC3)ccc2nc1-c1ccccc1` [Compound 1Ai, 5-(2-phenyl-6-(4-phenylpiperazine-1-carbonyl)quinolin-3-yl)pentanoic acid] gave a Ki of 2.1 to 20 nM.
For `O=C(O)CCCCc1cc2cc(C(=O)N[C@H]3COc4ccccc43)ccc2nc1-c1ccccc1` [Compound 1Ao, (R)-5-(6-((2,3-dihydrobenzofuran-3-yl)carbamoyl)-2-phenylquinolin-3-yl)pentanoic acid], the Ki was 20.1 to 200 nM.
`O=C(O)CCCCc1cc2cc(C(=O)N3CCN(c4ccccc4Cl)CC3)ccc2nc1-c1ccccc1` [Compound 1BA, 5-(6-(4-(2-chlorophenyl)piperazine-1-carbonyl)-2-phenylquinolin-3-yl)pentanoic acid] was tested, and the Ki was 2.1 to 20 nM.
With `Cc1ccccc1N1CCN(C(=O)c2ccc3nc(-c4ccccc4)c(CCCCC(=O)O)cc3c2)CC1` [Compound 1BB, 5-(2-phenyl-6-(4-(o-tolyl)piperazine-1-carbonyl)quinolin-3-yl)pentanoic acid] the Ki was 2.1 to 20 nM.

Each compound was assayed against T1, hCRTH2 (assay: Radioligand Binding Assay A ([3H]PGD2 filtration binding, HEK-hCRTH2 membranes)). Conditions: Table A, rated A-D.
In short: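 Membranes from HEK-hCRTH2 cells (8-20 μg) incubated 60 min at room temperature with 3.0 nM [3H]PGD2 in 50 mM Tris-HCl pH 7.4, 1 mM EDTA, 2 mM MnCl2, 1% Me2SO. Non-specific binding defined with 10 μM PGD2; bound radioactivity counted after filtration.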
Compound `O=C(O)CCCCc1cc2cc(C(=O)N[C@H]3CCc4cc(Cl)ccc43)cnc2nc1-c1ccc(F)cc1` [Compound 6L, 6-[[(5-chloro-2,3-dihydro-1H-inden-1(S)-yl)amino]carbonyl]-2-(4-fluorophenyl)-1,8-naphthyridine-3-pentanoic acid] has a Ki of 2.1 to 20 nM.
For `O=C(O)CCCCc1cc2cc(C(=O)N[C@H]3CCc4ccc(F)cc43)cnc2nc1-c1ccc(F)cc1` [Compound 6M, 6-[[(6-fluoro-2,3-dihydro-1H-inden-1(S)-yl)amino]carbonyl]-2-(4-fluorophenyl)-1,8-naphthyridine-3-pentanoic acid], the Ki was 20.1 to 200 nM.
`O=C(O)CCCCc1cc2cc(C(=O)N[C@H]3CCCc4cc(Cl)ccc43)cnc2nc1-c1ccc(F)cc1` [Compound 6N, 6-[[(6-chloro-1,2,3,4-tetrahydro-1(S)-naphthalenyl)amino]carbonyl]-2-(4-fluorophenyl)-1,8-naphthyridine-3-pentanoic acid] was tested, and the Ki was 20.1 to 200 nM.
`COc1ccc([C@H](NC(=O)c2cnc3nc(-c4ccc(F)cc4)c(CCCCC(=O)O)cc3c2)C(F)(F)F)cc1` [Compound 6P, 2-(4-fluorophenyl)-6-[[[2,2,2-trifluoro-1(S)-(4-methoxyphenyl)ethyl]amino]carbonyl]-1,8-naphthyridine-3-pentanoic acid] showed a Ki of 20.1 to 200 nM.
`O=C(O)CCCCc1cc2cc(C(=O)N[C@H](c3cc(Cl)cc(Cl)c3)C(F)(F)F)cnc2nc1-c1ccc(F)cc1` [Compound 6Q, 6-[[[1(R)-(3,5-dichlorophenyl)-2,2,2-trifluoroethyl]amino]carbonyl]-2-(4-fluorophenyl)-1,8-naphthyridine-3-pentanoic acid] showed a Ki of 2.1 to 20 nM.
`O=C(O)CCCCc1cc2cc(C(=O)N[C@@H](c3cc(Cl)cc(Cl)c3)C(F)(F)F)cnc2nc1-c1ccc(F)cc1` [Compound 6R, 6-[[[1(S)-(3,5-dichlorophenyl)-2,2,2-trifluoroethyl]amino]carbonyl]-2-(4-fluorophenyl)-1,8-naphthyridine-3-pentanoic acid] gave a Ki of 2.1 to 20 nM.
Work on `COc1ccc([C@@H](NC(=O)c2cnc3nc(-c4ccc(F)cc4)c(CCCCC(=O)O)cc3c2)C(F)(F)F)cc1` [Compound 6i, 2-(4-fluorophenyl)-6-[[[2,2,2-trifluoro-1(R)-(4-methoxyphenyl)ethyl]amino]carbonyl]-1,8-naphthyridine-3-pentanoic acid] yielded a Ki of 20.1 to 200 nM.
`O=C(O)CCCCc1cc2cc(C(=O)N[C@H]3CCCc4ccc(F)cc43)cnc2nc1-c1ccc(F)cc1` [Compound 6o, 2-(4-fluorophenyl)-6-[[(7-fluoro-1,2,3,4-tetrahydro-1(S)-naphthalenyl)amino]carbonyl]-1,8-naphthyridine-3-pentanoic acid] was tested, and the Ki was 20.1 to 200 nM.
